What was measured:
CD69 = experiment: Induction of CD69 in human whole blood; type: cell-based; conditions: Homo sapiens, 17 h, 100% set to 1 uM of resiquimod, average where assay performed multiple times, read-out: hWB CD69 EC50
In short: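 Heparinized human whole blood treated with TLR7 agonist at final 1 uM and incubated 17 h at 37° C. CD69 surface staining alongside CD14 and CD19, then fix/lysis and flow cytometry on iQuePlus. Curves fitted with 1 uM resiquimod set as 100%.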

human TLR7 = target: T1, human TLR7 (Homo sapiens, UniProt Q9NYK1); experiment: Human TLR7 agonist activity assay (HEK-Blue TLR7 SEAP reporter); type: cell-based; conditions: HEK-Blue TLR7 cells, 18 h treatment, average where assay performed multiple times, read-out: hTLR7 Agonism EC50
T1 construct: host or cells: HEK-Blue TLR7 cells (engineered human embryonic kidney cells)
T1 sequence (Q9NYK1 27-1049): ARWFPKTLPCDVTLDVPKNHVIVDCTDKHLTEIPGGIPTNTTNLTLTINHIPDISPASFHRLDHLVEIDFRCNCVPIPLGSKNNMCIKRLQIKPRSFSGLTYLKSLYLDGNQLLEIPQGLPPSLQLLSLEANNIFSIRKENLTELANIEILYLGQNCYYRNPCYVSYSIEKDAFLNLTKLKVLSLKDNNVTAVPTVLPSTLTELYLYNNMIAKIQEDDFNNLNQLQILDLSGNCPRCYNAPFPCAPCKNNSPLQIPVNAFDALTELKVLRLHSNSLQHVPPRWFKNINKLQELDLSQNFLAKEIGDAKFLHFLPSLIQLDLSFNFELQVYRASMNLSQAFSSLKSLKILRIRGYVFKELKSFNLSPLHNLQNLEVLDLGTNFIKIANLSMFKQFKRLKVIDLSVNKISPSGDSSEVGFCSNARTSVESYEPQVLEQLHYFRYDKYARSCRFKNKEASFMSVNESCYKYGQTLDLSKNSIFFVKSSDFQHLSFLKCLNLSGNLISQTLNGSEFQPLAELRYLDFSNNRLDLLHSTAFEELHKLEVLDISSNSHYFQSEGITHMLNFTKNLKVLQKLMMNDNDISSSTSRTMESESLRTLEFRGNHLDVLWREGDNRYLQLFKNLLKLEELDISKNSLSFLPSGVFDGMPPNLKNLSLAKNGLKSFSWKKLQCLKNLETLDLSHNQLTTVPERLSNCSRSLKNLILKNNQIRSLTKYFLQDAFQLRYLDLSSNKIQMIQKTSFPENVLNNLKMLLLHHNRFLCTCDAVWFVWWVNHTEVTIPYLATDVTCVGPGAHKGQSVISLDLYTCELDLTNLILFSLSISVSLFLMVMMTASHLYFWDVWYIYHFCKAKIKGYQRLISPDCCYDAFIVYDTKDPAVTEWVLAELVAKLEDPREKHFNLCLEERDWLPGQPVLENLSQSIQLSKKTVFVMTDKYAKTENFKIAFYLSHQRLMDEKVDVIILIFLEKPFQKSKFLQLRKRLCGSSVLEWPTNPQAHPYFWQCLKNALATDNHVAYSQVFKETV
In short: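 HEK-Blue TLR7 cells (15,000/well) treated with compound for 18 h at 37 °C, 5% CO2. Secreted SEAP measured with Quanti-Blue, 30 min, OD 620 nm. EC50 taken as concentration giving half-maximal response between baseline and maximum.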

| EC50 (CD69) [nM] | EC50 (human TLR7) [nM] | SMILES |
| --- | --- | --- |
| 64.7 | 447 | CCCCNc1nc(N)nc2cnn(Cc3ncc(C4CCN(C5CNC5)CC4)cc3OC)c12 [Compound 115, 1-({5-[1-(azetidin-3-yl)piperidin-4-yl]-3-methoxypyridin-2-yl}methyl)-N7-butyl-1H-pyrazolo[4,3-d]pyrimidine-5,7-diamine] |
| 25.8 | 28.5 | CCCCNc1nc(N)nc2cnn(Cc3ncc(C4CCN(CC(C)(C)O)CC4)cc3OC)c12 [Compound 146, 1-[4-(6-{[5-amino-7-(butylamino)-1H-pyrazolo[4,3-d]pyrimidin-1-yl]methyl}-5-methoxypyridin-3-yl)piperidin-1-yl]-2-methylpropan-2-ol] |
| 5.4 | 65.3 | CCCCNc1nc(N)nc2cnn(Cc3ncc(C4CCN(C)CC4)cc3OC)c12 [Compound 111, N7-butyl-1-{[3-methoxy-5-(1-methylpiperidin-4-yl)pyridin-2-yl]methyl}-1H-pyrazolo[4,3-d]pyrimidine-5,7-diamine] |
| 55.5 | 309 | CCC[C@@H](CCO)Nc1nc(N)nc2cnn(Cc3ncc(N4CCNCC4)cc3OC)c12 [Compound 171, (3S)-3-[(5-amino-1-{[3-methoxy-5-(piperazin-1-yl)pyridin-2-yl]methyl}-1H-pyrazolo[4,3-d]pyrimidin-7-yl)amino]hexan-1-ol] |
| 9.9 | 579 | CCC[C@@H](CCO)Nc1nc(N)nc2cnn(Cc3nnc(C4CCN(C(C)C)CC4)cc3OC)c12 [Compound 177, (3S)-3-{[5-amino-1-({4-methoxy-6-[1-(propan-2-yl)piperidin-4-yl]pyridazin-3-yl}methyl)-1H-pyrazolo[4,3-d]pyrimidin-7-yl]amino}hexan-1-ol] |
| 40.2 | 491 | CCCCNc1nc(N)nc2c(C)nn(Cc3ncc(C4CCN(C)CC4)cc3OC)c12 [Compound 123, N7-butyl-1-{[3-methoxy-5-(1-methylpiperidin-4-yl)pyridin-2-yl]methyl}-3-methyl-1H-pyrazolo[4,3-d]pyrimidine-5,7-diamine] |
| 195 | 180 | CCCCNc1nc(N)nc2cnn(Cc3ncc(C4CCN(C=O)CC4)cc3OC)c12 [Compound 132, 4-(6-{[5-amino-7-(butylamino)-1H-pyrazolo[4,3-d]pyrimidin-1-yl]methyl}-5-methoxypyridin-3-yl)piperidine-1-carbaldehyde] |
| 0.32 | 15.2 | CCC[C@@H](CCO)Nc1nc(N)nc2cnn(Cc3ncc(C4CCN(CC(C)(C)O)CC4)cc3OC)c12 [Compound 151, (3S)-3-{[5-amino-1-({5-[1-(2-hydroxy-2-methylpropyl)piperidin-4-yl]-3-methoxypyridin-2-yl}methyl)-1H-pyrazolo[4,3-d]pyrimidin-7-yl]amino}hexan-1-ol] |
| 16.2 | 73.2 | COc1cc(C2CCN(C3CCOCC3)CC2)cnc1Cn1ncc2nc(N)nc(NCc3cc(C)on3)c21 [Compound 141, 1-({3-methoxy-5-[1-(oxan-4-yl)piperidin-4-yl]pyridin-2-yl}methyl)-N7-[(5-methyl-1,2-oxazol-3-yl)methyl]-1H-pyrazolo[4,3-d]pyrimidine-5,7-diamine] |
| 4.57 | 139 | CCC[C@@H](CCO)Nc1nc(N)nc2cnn(Cc3ccc(C4CN(CCO)CCN4)cc3OC)c12 (stereo partly drawn) [Compound 181, (3S)-3-{[5-amino-1-({4-[4-(2-hydroxyethyl)piperazin-2-yl]-2-methoxyphenyl}methyl)-1H-pyrazolo[4,3-d]pyrimidin-7-yl]amino}hexan-1-ol] |
| 890 | 716 | CCCCNc1nc(N)nc2cnn(Cc3ncc(C4CCN(C(=O)CN5C[C@@H]6C[C@H]5CN6)CC4)cc3OC)c12 [Compound 118, 1-[4-(6-{[5-amino-7-(butylamino)-1H-pyrazolo[4,3-d]pyrimidin-1-yl]methyl}-5-methoxypyridin-3-yl)piperidin-1-yl]-2-[(1S,4S)-2,5-diazabicyclo[2.2.1]heptan-2-yl]ethan-1-one] |
| 81 | 131 | CCCCNc1nc(N)nc2cnn(Cc3cc(F)c(N4CCN(C(=O)CNCC(C)(C)O)CC4)cc3OC)c12 [Compound 196, 1-[4-(4-{[5-amino-7-(butylamino)-1H-pyrazolo[4,3-d]pyrimidin-1-yl]methyl}-2-fluoro-5-methoxyphenyl)piperazin-1-yl]-2-[(2-hydroxy-2-methylpropyl)amino]ethan-1-one] |
| 159 | 817 | CCCCNc1nc(N)nc2cnn(Cc3ncc(C4CCN(C(=O)CCO)CC4)cc3OC)c12 [Compound 105, 1-[4-(6-{[5-amino-7-(butylamino)-1H-pyrazolo[4,3-d]pyrimidin-1-yl]methyl}-5-methoxypyridin-3-yl)piperidin-1-yl]-3-hydroxypropan-1-one] |
| 83.7 | 290 | CCC[C@@H](CCO)Nc1nc(N)nc2cnn(Cc3nc(C4CCN(CCO)CC4)ccc3OC)c12 [Compound 188, (3S)-3-{[5-amino-1-({6-[1-(2-hydroxyethyl)piperidin-4-yl]-3-methoxypyridin-2-yl}methyl)-1H-pyrazolo[4,3-d]pyrimidin-7-yl]amino}hexan-1-ol] |
| 3.9 | 41 | CCC[C@@H](CCO)Nc1nc(N)nc2cnn(Cc3ncc(C4CCN(CCN(C)C)CC4)cc3OC)c12 [Compound 164, (3S)-3-({5-amino-1-[(5-{1-[2-(dimethylamino)ethyl]piperidin-4-yl}-3-methoxypyridin-2-yl)methyl]-1H-pyrazolo[4,3-d]pyrimidin-7-yl}amino)hexan-1-ol] |
| 2 | 79.1 | CCCCNc1nc(N)nc2cnn(Cc3ncc(C4CCN(CC(=O)N(C)C)CC4)cc3OC)c12 [Compound 120, 2-[4-(6-{[5-amino-7-(butylamino)-1H-pyrazolo[4,3-d]pyrimidin-1-yl]methyl}-5-methoxypyridin-3-yl)piperidin-1-yl]-N,N-dimethylacetamide] |
| 7.1 | 34 | COc1cc(C2CCN(C3CC4(COC4)C3)CC2)cnc1Cn1ncc2nc(N)nc(NCC3CC4(CC4)C3)c21 (centres unmarked) [Compound 154, 1-{[3-methoxy-5-(1-{2-oxaspiro[3.3]heptan-6-yl}piperidin-4-yl)pyridin-2-yl]methyl}-N7-({spiro[2.3]hexan-5-yl}methyl)-1H-pyrazolo[4,3-d]pyrimidine-5,7-diamine] |
| 128 | 53.3 | CCCCNc1nc(N)nc2cnn(Cc3cc(F)c(N4CCN(C(=O)CNC5CCOCC5)CC4)cc3OC)c12 [Compound 195, 1-[4-(4-{[5-amino-7-(butylamino)-1H-pyrazolo[4,3-d]pyrimidin-1-yl]methyl}-2-fluoro-5-methoxyphenyl)piperazin-1-yl]-2-[(oxan-4-yl)amino]ethan-1-one] |
| 0.28 | 6.8 | CCC[C@@H](CCO)Nc1nc(N)nc2cnn(Cc3ccc(C4CN(C(C)C)CCN4)cc3OC)c12 (stereo partly drawn) [Compound 182, (3S)-3-{[5-amino-1-({2-methoxy-4-[4-(propan-2-yl)piperazin-2-yl]phenyl}methyl)-1H-pyrazolo[4,3-d]pyrimidin-7-yl]amino}hexan-1-ol] |
| 213 | 445 | CCCCNc1nc(N)nc2cnn(Cc3ncc(C4CCN(C(=O)CCOC)CC4)cc3OC)c12 [Compound 104, 1-[4-(6-{[5-amino-7-(butylamino)-1H-pyrazolo[4,3-d]pyrimidin-1-yl]methyl}-5-methoxypyridin-3-yl)piperidin-1-yl]-3-methoxypropan-1-one] |
| 7.2 | 67.9 | CCC[C@@H](CCO)Nc1nc(N)nc2cnn(Cc3ccc(C4CNCCN4)cc3OC)c12 (stereo partly drawn) [Compound 180, (3S)-3-[(5-amino-1-{[2-methoxy-4-(piperazin-2-yl)phenyl]methyl}-1H-pyrazolo[4,3-d]pyrimidin-7-yl)amino]hexan-1-ol] |
| 18.7 | 193 | CCCCNc1nc(N)nc2c(C)nn(Cc3ncc(C4CCN(C(C)C)CC4)cc3OC)c12 [Compound 122, N7-butyl-1-({3-methoxy-5-[1-(propan-2-yl)piperidin-4-yl]pyridin-2-yl}methyl)-3-methyl-1H-pyrazolo[4,3-d]pyrimidine-5,7-diamine] |

From patent US20230144824A1, “1H-PYRAZOLO[4,3-d]PYRIMIDINE COMPOUNDS AS TOLL-LIKE RECEPTOR 7 (TLR7) AGONISTS” (BRISTOL-MYERS SQUIBB COMPANY, priority 2020, published 2023)
